Values of other authors, collected in patent US20240197726A1, “NOVEL TETRAHYDROISOQUINOLINE ALKALOID COMPOUND CONTAINING MACROCYCLE” (THE UNIVERSITY OF TOKYO, priority 2021, published 2024).
Where two headings read alike, the source gives them in different places.

Tests used:
Settings in all cases: cited from earlier work
[1] = tested on: MCF-7 breast cancer cells
[2] = tested on: MDA-MB-231 breast cancer cells
[3] = tested on: HT-29 colorectal cancer cells
[4] = tested on: HCT-116 colorectal cancer cells
[5] = tested on: NCI-H23 lung cancer cells
[6] = tested on: NCI-H460 lung cancer cells
A549 lung cancer cells = tested on: A549 lung cancer cells

| SMILES | GI50 ([1]; MCF-7, reference values from literature (Leal et al. Br. J Pharmacol, 2010), read-out: GI50 value: 50% growth inhibitory concentration) | GI50 ([2]; MDA-MB-231, reference values from literature (Leal et al. Br. J Pharmacol, 2010), read-out: GI50 value: 50% growth inhibitory concentration) | GI50 ([3]; HT-29, reference values from literature (Leal et al. Br. J Pharmacol, 2010), read-out: GI50 value: 50% growth inhibitory concentration) | GI50 ([4]; HCT-116, reference values from literature (Leal et al. Br. J Pharmacol, 2010), read-out: GI50 value: 50% growth inhibitory concentration) | GI50 ([5]; NCI-H23, reference values from literature (Leal et al. Br. J Pharmacol, 2010), read-out: GI50 value: 50% growth inhibitory concentration) | GI50 ([6]; NCI-H460, reference values from literature (Leal et al. Br. J Pharmacol, 2010), read-out: GI50 value: 50% growth inhibitory concentration) | GI50 (A549 lung cancer cells; A549, reference values from literature (Leal et al. Br. J Pharmacol, 2010), read-out: GI50 value: 50% growth inhibitory concentration) | GI50 ([1]; MCF-7 breast cancer cells, comparative value based on the literature, read-out: antitumor activity GI50 value: 50% growth inhibitory concentration) | GI50 ([2]; MDA-MB-231 breast cancer cells, comparative value based on the literature, read-out: antitumor activity GI50 value: 50% growth inhibitory concentration) | GI50 ([3]; HT-29 colorectal cancer cells, comparative value based on the literature, read-out: antitumor activity GI50 value: 50% growth inhibitory concentration) | GI50 ([4]; HCT-116 colorectal cancer cells, comparative value based on the literature, read-out: antitumor activity GI50 value: 50% growth inhibitory concentration) | GI50 ([5]; NCl-H23 lung cancer cells, comparative value based on the literature, read-out: antitumor activity GI50 value: 50% growth inhibitory concentration) | GI50 ([6]; NCl--H460 lung cancer cells, comparative value based on the literature, read-out: antitumor activity GI50 value: 50% growth inhibitory concentration) | GI50 (A549 lung cancer cells; A549 lung cancer cells, comparative value based on the literature, read-out: antitumor activity GI50 value: 50% growth inhibitory concentration) |
| --- | --- | --- | --- | --- | --- | --- | --- | --- | --- | --- | --- | --- | --- | --- |
| COc1ccc2[nH]c3c(c2c1)CCN[C@]31CS[C@@H]2c3c(OC(C)=O)c(C)c4c(c3[C@H](COC1=O)N1[C@@H]2[C@H]2c3c(cc(C)c(OC)c3O)C[C@@H]([C@@H]1O)N2C)OCO4 [lurbinectedin, reference compound] | 1.7 nM | 3.4 nM | 2.4 nM | 6.4 nM | 5.3 nM | 1.5 nM | 1.3 nM | – | – | – | – | – | – | – |
| COc1c(C)cc2c(c1C)[C@H]1N(C)[C@@](C)(C2)C(O)N2C1(C)[C@@H]1CCC3(NCCc4cc(C)c(C)cc43)C(=O)OC[C@@]2(C)c2c3c(c(C)c(C)c21)OCO3 (some centres unmarked) | – | – | – | – | – | – | – | 2.6 nM | 3.9 nM | 9.8 nM | 4.9 nM | 2.1 nM | 1.8 nM | 10.4 nM |
